Earlier results as cited in patent publication US20110223312A1, “TRIGLYCERIDE-ENCAPSULATED PHYTOSTEROL MICROPARTICLES DISPERSED IN BEVERAGES” (priority 2009, published 2011).

Test system: plasma cholesterol

Row | SMILES | lowering of serum cholesterol (12-18 g per day in divided doses, males with atherosclerosis (Faquhar et al. 1956)) | decrease of the plasma cholesterol level (9-18 grams of sitosterol per day, coarse powdered form, two earlier human studies)
1 | CC[C@H](CC[C@@H](C)[C@H]1CC[C@H]2[C@@H]3CC=C4C[C@@H](O)CC[C@]4(C)[C@H]3CC[C@]12C)C(C)C [beta sitosterol] | 15-20% | –
2 | CC[C@H](CC[C@@H](C)[C@H]1CC[C@H]2[C@@H]3CC=C4C[C@@H](O)CC[C@]4(C)[C@H]3CC[C@]12C)C(C)C [sitosterol] | – | approximately 15%
